Results as given in patent US6727084B1, “Cold-active beta-galactosidase, the process for its preparation and the use thereof” (Universite de Liege, priority 1999, dated 2004).
Entries after “also recorded” stand apart in the source; their conditions may differ.

Tests used:
[1] = molecular target: T1, E. coli β-galactosidase (Sigma G2513) (Escherichia coli, UniProt P00722); assay: biochemical; conditions: read-out: stimulation of enzyme activity by 2-mercaptoethanol (factor)
Method: (§1) The β-galactosidase from Escherichia coli used as a control was from Sigma (G2513).
(§2) The effect of K+ was determined by assaying activity in 100 mM phosphate buffer containing KCl at concentrations from 0 to 100 mM. LMG P-19143 β-galactosidase optimal activity was recorded using a KCl concentration of 80 mM whereas the E. coli β-galactosidase optimal activity was recorded at a KCl concentration of 40 mM. At theses concentrations, KCl stimulated the activity of both enzymes by a factor of 1.5.
(§3) Optimal activity of the LMG P-19143 enzyme was recorded at 80 mM 2-mercaptoethanol and that of E. coli enzyme at 40 mM 2-mercaptoethanol. At these concentrations, the reducing agent stimulated LMG P-19143 enzyme activity twofold and E. coli enzyme by a factor of 1.5.

[2] = molecular target: T2, Pseudoalteromonas haloplanktis LMG P-19143 cold-active β-galactosidase (lac Z), native, SEQ ID NO: 2 (Pseudoalteromonas haloplanktis, UniProt P81650); assay: effect of 2-mercaptoethanol on LMG P-19143 β-galactosidase activity; type: biochemical; design: ORF of 1038 residues; conditions: 80 mM 2-mercaptoethanol (optimal activity), 100 mM phosphate buffer; ONPG
T2 sequence (P81650 whole entry): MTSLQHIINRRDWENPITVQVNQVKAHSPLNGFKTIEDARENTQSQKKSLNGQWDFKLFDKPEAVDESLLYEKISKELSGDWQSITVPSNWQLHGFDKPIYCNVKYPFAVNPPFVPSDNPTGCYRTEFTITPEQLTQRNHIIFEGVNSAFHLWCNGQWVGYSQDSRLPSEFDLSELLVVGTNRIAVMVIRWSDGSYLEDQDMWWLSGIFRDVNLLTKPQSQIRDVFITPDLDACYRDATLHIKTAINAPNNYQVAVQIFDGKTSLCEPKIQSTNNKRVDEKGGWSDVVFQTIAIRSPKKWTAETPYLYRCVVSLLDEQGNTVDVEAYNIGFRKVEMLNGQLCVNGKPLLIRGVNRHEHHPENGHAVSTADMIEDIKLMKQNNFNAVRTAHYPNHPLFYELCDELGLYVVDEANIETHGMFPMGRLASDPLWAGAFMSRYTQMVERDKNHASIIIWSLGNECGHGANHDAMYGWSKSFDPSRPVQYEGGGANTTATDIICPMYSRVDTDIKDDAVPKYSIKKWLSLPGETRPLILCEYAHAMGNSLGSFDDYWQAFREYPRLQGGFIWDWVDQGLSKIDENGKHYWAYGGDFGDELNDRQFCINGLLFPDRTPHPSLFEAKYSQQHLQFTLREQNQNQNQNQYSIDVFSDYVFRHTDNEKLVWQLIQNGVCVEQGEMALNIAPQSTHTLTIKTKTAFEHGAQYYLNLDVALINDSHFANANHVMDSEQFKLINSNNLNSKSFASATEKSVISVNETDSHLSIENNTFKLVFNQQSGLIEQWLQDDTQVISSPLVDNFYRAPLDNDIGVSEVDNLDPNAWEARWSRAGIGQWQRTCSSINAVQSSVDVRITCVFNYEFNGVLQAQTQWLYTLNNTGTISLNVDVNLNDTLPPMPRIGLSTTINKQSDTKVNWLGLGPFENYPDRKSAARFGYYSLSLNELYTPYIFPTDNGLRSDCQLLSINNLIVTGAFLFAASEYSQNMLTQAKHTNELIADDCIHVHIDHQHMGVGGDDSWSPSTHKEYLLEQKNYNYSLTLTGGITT
Method: as §2, §3

[3] = molecular target: T2, Pseudoalteromonas haloplanktis LMG P-19143 cold-active β-galactosidase (lac Z), native, SEQ ID NO: 2; assay: kinetics of LMG P-19143 β-galactosidase with lactose as substrate (galactose dehydrogenase assay); type: biochemical; design: ORF of 1038 residues; conditions: 25° C.
Source text: (§4) The definition of enzyme activity units can be defined according to the substrate used with lactose as a substrate, the unit of activity is defined as the amount of enzyme which releases one micro-mole glucose in one minute under standard reaction conditions (temperature, pH). Another commonly used substrate is ortho-nitrophenyl-β-D galactopyranoside (ONPG) and in this case, the unit of activity is defined as the amount of enzyme which hydrolyses one micro-mole of ONPG in one minute under standard reaction conditions.
Km was also determined at 25° C. with lactose (1 mM to 50 mM) as a substrate.

[4] = molecular target: T2, Pseudoalteromonas haloplanktis LMG P-19143 cold-active β-galactosidase (lac Z), native, SEQ ID NO: 2; assay: biochemical; conditions: pH 7.5, read-out: residual activity after EDTA treatment (% of initial activity)
Method: The assay of β-galactosidase was carried out using 3 mM ONPG (ortho-nitrophenyl-β-galactopyranoside) as a chromogenic substrate in 100 mM sodium phosphate buffer, pH 7,3, 1 mM MgCl2, 100 mM 2-mercaptoethanol (Sigma). Activities toward the chromogenic substrate were recorded in a thermostated Uvicon 860 Spectrophotometer (Kontron) at 25° C. and calculated on the basis of an extinction coefficient for o-nitrophenol of 3.5 mM^−1 cm^−1 at 410 nm (Miller, J. H. and Reznikoff, W. S., Eds. 1978; The Operon. Cold Spring Harbor Laboratory Press, N.Y.). Assays using lactose as a substrate were carried out using various concentrations of lactose. The reaction was stopped by boiling the sample in a water bath for 3 minutes. The galactose dehydrogenase assay was used to measure the amount of galactose released by the enzyme (Schachter H. 1975, Enzymatic microassays for D-Mannose, D-Glucose, D-Galactose, L-Fucose, and D-Glucosamine. Methods Enzymol., 41: 3-10.) The specific activity of β-galactosidase is defined as micro-moles of galactose released per minute per mg of protein.
To determine the effect of divalent metal ions on activity, assays were performed in 100 mM phosphate buffer at 25° C. and pH 7.5. The enzyme preparation was treated with 5 mM EDTA to complex metal ions.

[5] = molecular target: T1, E. coli β-galactosidase (Sigma G2513); assay: kinetics of E. coli β-galactosidase (control) with ONPG as substrate; type: biochemical
Source text: as §4, §1
(§5) The activation energy (Ea) was determined from the slope (−Ea/R) of Arrhenius plot and the thermodynamic activation parameters of the reaction were calculated according to the following equations: […]
(§6) At 8° C., the kcat (s^−1) of the LMG P-19143 enzyme is twice as high as that of E. coli enzyme. Theses curves have been used to construct Arrhenius plots and to calculate the activation energy parameters of the reaction as shown in table 2.
(§7) Assays were performed with ONPG as a substrate at various concentrations and at different temperatures to determine Km and Vmax values.

[6] = molecular target: T2, Pseudoalteromonas haloplanktis LMG P-19143 cold-active β-galactosidase (lac Z), native, SEQ ID NO: 2; assay: kinetics of LMG P-19143 β-galactosidase with ONPG as substrate; type: biochemical; design: ORF of 1038 residues
Source text: as §4, §5, §6, §7

T1 sequence (P00722 whole entry): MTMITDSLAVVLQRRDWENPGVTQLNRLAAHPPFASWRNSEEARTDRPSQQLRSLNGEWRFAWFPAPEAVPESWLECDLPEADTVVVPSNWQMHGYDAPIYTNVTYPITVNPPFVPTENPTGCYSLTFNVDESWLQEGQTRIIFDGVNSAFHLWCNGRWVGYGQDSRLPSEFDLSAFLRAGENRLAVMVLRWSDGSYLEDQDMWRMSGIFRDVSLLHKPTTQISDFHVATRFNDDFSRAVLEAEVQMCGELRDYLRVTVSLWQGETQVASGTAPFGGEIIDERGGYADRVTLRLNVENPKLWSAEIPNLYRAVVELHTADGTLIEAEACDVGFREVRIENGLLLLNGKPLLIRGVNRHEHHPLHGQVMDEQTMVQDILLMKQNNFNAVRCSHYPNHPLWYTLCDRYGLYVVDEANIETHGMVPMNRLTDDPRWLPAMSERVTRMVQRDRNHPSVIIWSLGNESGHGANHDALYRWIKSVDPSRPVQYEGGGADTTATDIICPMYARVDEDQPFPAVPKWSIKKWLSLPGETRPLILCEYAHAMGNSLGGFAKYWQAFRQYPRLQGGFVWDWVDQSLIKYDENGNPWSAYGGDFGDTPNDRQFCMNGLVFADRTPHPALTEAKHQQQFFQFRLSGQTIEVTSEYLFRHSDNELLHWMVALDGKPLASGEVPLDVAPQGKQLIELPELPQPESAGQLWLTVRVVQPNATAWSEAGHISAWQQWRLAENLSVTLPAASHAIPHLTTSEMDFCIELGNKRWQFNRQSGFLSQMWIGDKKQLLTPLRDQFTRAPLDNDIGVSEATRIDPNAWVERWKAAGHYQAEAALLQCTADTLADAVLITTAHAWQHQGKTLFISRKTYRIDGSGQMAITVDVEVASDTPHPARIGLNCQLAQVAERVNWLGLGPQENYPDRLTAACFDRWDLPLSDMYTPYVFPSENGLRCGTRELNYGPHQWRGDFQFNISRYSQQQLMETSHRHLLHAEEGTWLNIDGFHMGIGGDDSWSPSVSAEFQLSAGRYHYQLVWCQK

OCCS [2-mercaptoethanol]
fold induction at 40000 µM [1]: 1.5 | stimulation of enzyme activity by 2-mercaptoethanol [2]: twofold

OC[C@H]1O[C@@H](O[C@H]2[C@H](O)[C@@H](O)C(O)O[C@@H]2CO)[C@H](O)[C@@H](O)[C@H]1O (stereo partly drawn) [lactose]
km relative to E. coli enzyme [3]: five times lower | physiological efficiency (kcat/km) relative to E. coli β-galactosidase [3]: eighty times as high; also recorded: ninety times higher | turnover (kcat) relative to E. coli enzyme [3]: fifteen times

O=C(O)CN(CCN(CC(=O)O)CC(=O)O)CC(=O)O [EDTA]
remaining activity at 5000 µM [4]: < 10%

O=[N+]([O-])c1ccccc1O[C@@H]1O[C@H](CO)[C@H](O)[C@H](O)[C@H]1O [ONPG, ortho-nitrophenyl-β-D galactopyranoside]
apparent Km (compared with LMG P-19143 enzyme) ([5]; 10° C.): nearly the same | kcat ([5]; 20° C.): 199 s⁻¹ | km (comparison of both enzymes) ([5]; at low temperature): comparable | kcat relative to that of E. coli enzyme ([6]; ONPG as substrate, 8° C.): twice as high | apparent Km (compared with E. coli enzyme) ([6]; ONPG as substrate, 10° C.): nearly the same | kcat ([6]; ONPG as substrate, 20° C.): 408 s⁻¹ | km (comparison of both enzymes) ([6]; ONPG as substrate, at low temperature): comparable | physiological efficiency (kcat/km) relative to E. coli enzyme ([6]; ONPG as substrate, FIG. 6): about three times higher | turnover (kcat) relative to E. coli enzyme ([6]; ONPG, temperature range of 0-40° C.): higher
